Target: T1, GFP-Plk4(K41M) in transfected HeLa cells (Homo sapiens, UniProt O00444, K41M)
T1 construct: expressed in transfected cells; host or cells: HeLa
T1 sequence (O00444 1-970 K41M): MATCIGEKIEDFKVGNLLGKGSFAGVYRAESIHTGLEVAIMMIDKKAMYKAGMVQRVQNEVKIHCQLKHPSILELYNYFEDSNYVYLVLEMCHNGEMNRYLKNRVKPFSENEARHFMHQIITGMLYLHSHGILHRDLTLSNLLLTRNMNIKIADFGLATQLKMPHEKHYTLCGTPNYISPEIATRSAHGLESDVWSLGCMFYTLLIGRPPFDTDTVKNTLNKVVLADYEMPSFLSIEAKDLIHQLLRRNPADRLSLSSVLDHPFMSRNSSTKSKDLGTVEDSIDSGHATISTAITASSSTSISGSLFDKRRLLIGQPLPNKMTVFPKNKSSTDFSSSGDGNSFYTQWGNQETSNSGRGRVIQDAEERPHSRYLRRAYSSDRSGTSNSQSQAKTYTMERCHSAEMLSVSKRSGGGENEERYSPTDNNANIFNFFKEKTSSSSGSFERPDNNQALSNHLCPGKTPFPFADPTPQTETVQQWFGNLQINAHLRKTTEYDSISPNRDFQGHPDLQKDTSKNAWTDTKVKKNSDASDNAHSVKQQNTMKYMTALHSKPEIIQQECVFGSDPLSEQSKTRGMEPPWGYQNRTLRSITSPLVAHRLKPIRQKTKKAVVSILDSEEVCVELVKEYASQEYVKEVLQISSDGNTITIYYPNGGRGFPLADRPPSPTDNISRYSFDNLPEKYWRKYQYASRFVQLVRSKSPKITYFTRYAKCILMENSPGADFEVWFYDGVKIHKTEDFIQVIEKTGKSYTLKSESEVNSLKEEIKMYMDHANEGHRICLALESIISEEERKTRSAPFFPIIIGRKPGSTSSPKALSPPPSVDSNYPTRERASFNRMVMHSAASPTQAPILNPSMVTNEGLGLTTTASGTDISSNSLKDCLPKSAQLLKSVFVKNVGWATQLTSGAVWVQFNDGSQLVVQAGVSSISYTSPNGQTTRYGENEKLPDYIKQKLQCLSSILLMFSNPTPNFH
Experiment: Live-cell confocal/STED imaging of overexpressed Plk4
Assay type: cell-based
Conditions: Cen-TCO 500 nM 1 h, tetrazine 500 nM, no wash (Figure S6)

Cc1nnc(COc2cccc3c2C2(OC3=O)c3ccc(N(C)C)cc3[Si](C)(C)c3cc(N(C)C)ccc32)nn1 [HD653, reference compound]
unspecific signal among tetrazines after Cen-TCO labeling: lowest unspecific signal
